{"source": "patent US10471119B2", "about": "“Composition for preventing, ameliorating, or treating neurological disease containing osmotin peptide as active ingredient” (INDUSTRY-ACADEMIC COOPERATION FOUNDATION GYEONGSANG …, priority 2015, dated 2019)", "key": {"[1]": {"system": "human neuroblast line SH-SY5Y", "assay": "ApoTox-Glo Triplex assay (cell viability, cytotoxicity, caspase-3 activity)", "format": "cell-based", "conditions": "neuronal cells", "description": "Human neuroblast line SH-SY5Y cells were cultured in 100 μl of dulbecco modified eagle medium (DMEM) supplemented with 10% (v/v) fetal bovine serum (FBS) and 1% (w/v) antibiotic (penicillin-streptomycin) at 37° C. and under the condition of 5% CO2.\nCells were seeded in a 96-well plate containing growth medium (DMEM medium containing 10% FBS, 100 units/ml penicillin, and […] streptomycin) in such a way that 100 μl of the culture was seeded in every cell at the population of 2×10^4 cells, and cultured under the condition of 5% CO2 at 37° C. When cells were about 70-90% confluent, they were transformed with pCAX-APP Swe/Ind for 8 hours by using Lipofectamine 3000 according to the manufacturers instructions. Then, the medium was removed by suction and replaced with fresh 100 μl of growth medium containing 0.5 to 20 μM osmotin-peptide. The cells in the fresh medium were incubated for 24 hours.\nAfter 24 hours, ApoTox-Glo™ Triplex assay using Glomax-Multi Detection system was performed according to the manufacturer's instructions to confirm cell viability, cytotoxicity assay, and caspase-3 activity."}, "[2]": {"assay": "Brain transfer of osmotin peptide-FITC after IP and tail vein (IV) injection, confocal fluorescence", "format": "in vivo, mice", "conditions": "for migration to the hippocampus of the brain: four hours later, FIG. 3", "description": "In addition, osmotin peptide-FITC was administered to the mice by intraperitoneal (IP) injection and tail vein injection (IV). Four hours later, the mice were fixed by transcardial perfusion with 4% (v/v) ice-cold paraformaldehyde, and the brain was harvested and post-fixed in 4% (v/v) paraformaldehyde for 72 hours, and finally, transferred to a 20% (w/v) sucrose for 72 hours.\nThe brain was infiltrated with OCT (optimal cutting temperature compound) under liquid nitrogen, and a 14 μm coronal section was mounted on a ProbeOn Plus slide.\nSlides for immunofluorescence analysis were washed twice with 0.01 M PBS buffer for 15 minutes. The sections were covered with proteinase K and incubated for 5 minutes in a humid chamber at the temperature of 37° C. Incubation was performed for one hour in a blocking solution containing 5% (v/v) normal goat serum dissolved in PBS buffer and 0.3% (v/v) Triton X-100. After the blocking process, the mounting cover slips and sections were observed on a confocal laser-scanning microscope (Flouview FV 1000)."}}, "note": "Residues, ends and D or L forms follow the SMILES beside them."}
{"smiles": "C[C@@H](O)[C@H](NC(=O)[C@@H]1CCCN1C(=O)CNC(=O)[C@H](CS)NC(=O)[C@@H]1CCCN1C(=O)CNC(=O)[C@H](CCC(N)=O)NC(=O)[C@@H](NC(=O)[C@@H](N)CS)[C@@H](C)O)C(=O)O", "note": "[osmotin peptide] (H-CTQGPCGPT-OH)", "values": [{"measurement": "cytotoxicity", "setting": "[1]", "result": "little cytotoxicity"}, {"measurement": "migration to the hippocampus of the brain", "setting": "[2]; intraperitoneal (IP) injection", "result": "migrated to the hippocampus of the brain"}, {"measurement": "migration to cortex and hypothalamus of the brain", "setting": "[2]; intravenous injection, FIG. 4", "result": "migrated to cortex and hypothalamus of the brain"}, {"measurement": "migration to the hippocampus of the brain", "setting": "[2]; tail vein injection (IV)", "result": "migrated to the hippocampus of the brain"}]}
